Laboratory results: the Biogen ADME set (Fang et al. 2023)
In brackets after ≈: the same amount, converted by molar mass.

Details: for aqueous solubility: pH 6.8

| SMILES | intrinsic clearance, human liver microsomes [mL/min/kg] | intrinsic clearance, rat liver microsomes [mL/min/kg] | MDR1-MDCK efflux ratio | aqueous solubility [µg/mL] | fraction unbound, human plasma | fraction unbound, rat plasma |
| --- | --- | --- | --- | --- | --- | --- |
| COc1cc2cc(N)c(C3CCNCC3)nc2cc1OC | ≤ 4.74 | ≤ 10.7 |  |  |  |  |
| Cc1cnn(C2CN(CC3(O)CCCCC3)C2)c1 | 54.7 | 1900 | 0.488 | 32.6 (≈ 131 µM) |  |  |
| O=C(C(c1ccccc1)c1ccccc1)N1CCOCC(Cc2ccc3cnccc3c2)C1 (stereo not drawn) | 404 | 653 | 1.97 | 35.3 (≈ 80.9 µM) |  |  |
| CNC(=O)C1(Cc2ccc(-c3cccnc3)cc2)CCN(Cc2ccc(F)cc2)C1 (stereo not drawn) | 228 | 756 | 1.53 |  | 0.105 | 0.083 |
| O=C(c1ccccc1)N1CCN2C(=O)N(Cc3ccccc3)C(=O)[C@H]2C1 | 6.77 | 78.8 | 1.52 | 62.3 (≈ 178 µM) |  |  |
| CCCS(=O)(=O)c1nc(NC2CC2)cc(-c2ccc3c(ccn3C3CC(C)(C)NC(C)(C)C3)c2)n1 | 51.1 | 123 | 34.9 |  |  |  |
| CCCNC(=O)C1(NCc2csnn2)CCCCC1 | 7.42 | 152 | 2.87 |  |  |  |
| CC1(C)CC(Oc2ccc(-c3ccc(-c4cn[nH]c4)cc3O)nn2)CC(C)(C)N1 |  |  |  | 12.9 (≈ 32.8 µM) |  |  |
| OCc1ccc(Cn2cc(-c3cc(F)ccc3-n3cccn3)nn2)cc1 | 15.5 | 114 | 2.09 | 34.5 (≈ 98.9 µM) |  |  |
| CCc1cc2c(OCC(=O)N3CCCC3)ncnc2s1 | 25.8 | 597 |  |  |  |  |
| Cc1nc(C)c(CNc2cnn(-c3ccccc3)c2)s1 | 14.2 | 124 | 0.521 | 36.4 (≈ 128 µM) |  |  |
| Cc1cc(NC(=O)CN(C)CCOc2ccccc2)on1 | 166 | 622 | 0.516 |  |  |  |
| Cc1ncc(CN2CCC(Nc3ccc4nnnn4n3)C(C)C2)s1 (stereo not drawn) | 16.2 | 122 | 27.5 |  | 0.449 | 0.379 |
| CN1CCN(C2=c3ccccc3=Nc3ccc(Cl)cc3N2)CC1 |  |  | 0.8 | 58.2 (≈ 178 µM) |  |  |
| CC(C)(O)Cn1nc(-c2ccccc2)c2c(Cl)c(-c3ccccc3)nnc21 | ≤ 4.74 | 85.5 | 0.725 |  |  |  |
| COCCc1n[nH]c(-c2ccc(N3CCN(C)CC3)cc2)n1 | ≤ 4.74 | 50 | 7.53 |  |  |  |
| COc1cc2ncn(-c3cc(OCc4ccccc4S(C)(=O)=O)c(C#N)s3)c2cc1OC |  |  | 8.01 | 0.3 (≈ 0.639 µM) |  |  |
| Cc1cccn(Cc2cccnc2)c1=O | ≤ 4.74 | ≤ 10.7 | 0.609 | 47 (≈ 235 µM) |  |  |
| c1ccc(-c2c(-c3ccc(OCCN4CCCC4)cc3)[nH]c3ncnc(NCC4SCCS4)c23)cc1 | 80.2 | 165 | 25 | 3.72 (≈ 7.19 µM) |  |  |
| CC(C)(C)C[C@@H]1COCc2nc(OCc3ccccn3)cc(=O)n21 |  |  |  | 62.1 (≈ 189 µM) |  |  |
| NC(=O)CC1CCN(c2ncccn2)CC1 | ≤ 4.74 | ≤ 10.7 | 1.01 | 58.2 (≈ 264 µM) |  |  |
| Cn1c(NC(=O)C2CC2c2ccc(Cl)cc2)nc2ccccc21 (stereo not drawn) |  |  |  | 0.3 (≈ 0.921 µM) |  |  |
| CCc1c[nH]c2ncnc(N3CCC(CN4CCN(C)CC4)CC3)c12 | ≤ 4.74 |  | 8.23 |  | 0.535 |  |
| O=C(C1CCC(O)CC1)N1CCCN(c2ccc(F)cc2)CC1 (stereo not drawn) | 11.9 | 206 | 4.68 | 80.7 (≈ 252 µM) |  |  |
| NCc1cccnc1OCc1ccccc1 | 11.7 | 747 | 0.434 | 25.5 (≈ 119 µM) |  |  |
| Cc1nc2ccc(C(=O)NCCCc3ccc(F)cc3)cc2[nH]1 | 8.01 | 195 |  | 47.9 (≈ 154 µM) |  |  |
| NC(=O)C1CCN(C(=O)CCc2ccc(Cl)cc2)CC1 | ≤ 4.74 | 135 | 6.24 | 47.8 (≈ 162 µM) |  |  |
| O=c1[nH]c2cnccc2n1Cc1ccccc1 | ≤ 4.74 | 47.9 | 1.55 | 31.5 (≈ 140 µM) |  |  |
| Cc1ccc(C#N)c(NCc2ccccc2-n2ccnc2)n1 | 45.7 | 621 | 1.76 |  |  |  |
